{
  "source": "patent US9656994B2",
  "about": "“Substituted benzimidazoles as nociceptin receptor modulators” (The Scripps Research Institute, priority 2013, dated 2017)",
  "key": {"NOP [1]": {"target": "T1, NOP (Homo sapiens, UniProt P41146)", "T1 sequence (P41146 whole entry)": "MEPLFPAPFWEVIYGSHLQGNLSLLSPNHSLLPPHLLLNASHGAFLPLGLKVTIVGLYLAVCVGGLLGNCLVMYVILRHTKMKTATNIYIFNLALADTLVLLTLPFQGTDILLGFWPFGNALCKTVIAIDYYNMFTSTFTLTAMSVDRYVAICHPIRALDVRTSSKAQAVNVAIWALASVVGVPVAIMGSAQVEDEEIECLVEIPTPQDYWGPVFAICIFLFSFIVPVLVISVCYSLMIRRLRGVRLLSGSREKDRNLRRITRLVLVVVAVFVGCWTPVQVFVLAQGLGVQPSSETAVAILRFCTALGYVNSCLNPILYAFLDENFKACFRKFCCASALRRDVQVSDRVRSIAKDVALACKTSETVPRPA", "test": "cAMP biosensor assay, NOP antagonist mode", "assay_type": "cell-based"}, "NOP [2]": {"target": "T1, NOP", "test": "cAMP biosensor assay, NOP agonist mode", "assay_type": "cell-based"}, "MOP [3]": {"target": "T2, MOP (Homo sapiens, UniProt P35372)", "T2 sequence (P35372 whole entry)": "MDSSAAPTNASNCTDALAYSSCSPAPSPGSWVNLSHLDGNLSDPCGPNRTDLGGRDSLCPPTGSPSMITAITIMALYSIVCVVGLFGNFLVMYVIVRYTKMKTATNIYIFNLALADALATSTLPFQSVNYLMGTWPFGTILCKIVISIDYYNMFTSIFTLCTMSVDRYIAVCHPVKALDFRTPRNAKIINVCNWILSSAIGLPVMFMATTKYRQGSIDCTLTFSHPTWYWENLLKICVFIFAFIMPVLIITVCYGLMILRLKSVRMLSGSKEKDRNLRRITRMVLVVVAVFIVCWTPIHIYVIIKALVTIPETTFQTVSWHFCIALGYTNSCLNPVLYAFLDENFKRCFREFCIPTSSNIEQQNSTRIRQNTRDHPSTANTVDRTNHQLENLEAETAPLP", "test": "cAMP biosensor assay, MOP agonist mode", "assay_type": "cell-based"}, "MOP [4]": {"target": "T2, MOP", "test": "cAMP biosensor assay, MOP antagonist mode", "assay_type": "cell-based"}, "[5]": {"system": "selected cytochrome P450 enzymes", "test": "affinity for selected cytochrome P450 enzymes"}, "[6]": {"test": "blood-brain barrier penetration", "conditions": "in vivo"}, "[7]": {"conditions": "HEK293-CNG cells expressing NOP, antagonist mode with 5 nM nociceptin, read-out: NOP Antagonist IC50"}, "[8]": {"conditions": "HEK293-CNG cells expressing NOP, agonist mode, 11 point concentration-response, read-out: NOP Agonist EC50"}},
  "note": "Where two headings read alike, the source gives them in different places.",
  "data": [
    {"smiles": "c1ccc2c(c1)nc(C1CCNCC1)n2C1CCN(CC2CCCCCCC2)CC1", "note": "[Cpd 10]", "values": [
      {"measurement": "IC50", "setting": "NOP [1]; [7]", "value": "> 10", "unit": "µM"},
      {"measurement": "EC50", "setting": "NOP [2]; [8]", "value": 3.5, "unit": "µM"},
      {"measurement": "EC50", "setting": "MOP [3]", "value": 0.4, "unit": "µM"},
      {"measurement": "IC50", "setting": "MOP [4]", "value": "> 10", "unit": "µM"}
    ]},
    {"smiles": "c1ccc2c(c1)nc([C@@H]1CCNC1)n2C1CCN(CC2CCCCCCC2)CC1", "note": "[Cpd 11]", "values": [
      {"measurement": "affinity for selected cytochrome P450 enzymes", "setting": "[5]", "value": "low affinity"},
      {"measurement": "blood-brain barrier penetration", "setting": "[6]", "value": 44, "unit": "%"}
    ]},
    {"smiles": "O[C@H]1CN[C@H](c2nc3ccccc3n2C2CCN(CC3CCCCCCC3)CC2)C1", "note": "[Cpd 18]", "values": [
      {"measurement": "IC50", "setting": "NOP [1]", "value": 7.8, "unit": "µM"},
      {"measurement": "EC50", "setting": "NOP [2]", "value": 1.4, "unit": "µM"},
      {"measurement": "EC50", "setting": "MOP [3]", "value": 0.57, "unit": "µM"}
    ]},
    {"smiles": "Fc1ccc2c(c1)nc([C@@H]1CCCNC1)n2C1CCN(CC2CCCCCCC2)CC1", "note": "[Cpd 30]", "values": [
      {"measurement": "IC50", "setting": "NOP [1]; [7]", "value": 3.9, "unit": "µM"},
      {"measurement": "EC50", "setting": "NOP [2]; [8]", "value": 0.15, "unit": "µM"},
      {"measurement": "EC50", "setting": "MOP [3]", "value": 0.23, "unit": "µM"},
      {"measurement": "IC50", "setting": "MOP [4]", "value": 3, "unit": "µM"}
    ]},
    {"smiles": "Cc1ccc2c(c1)nc([C@@H]1CCNC1)n2C1CCN(CC2CCCCCCC2)CC1", "note": "[Cpd 41]", "values": [
      {"measurement": "IC50", "setting": "NOP [1]; [7]", "value": "> 10", "unit": "µM"},
      {"measurement": "EC50", "setting": "NOP [2]; [8]", "value": 6.3, "unit": "µM"},
      {"measurement": "EC50", "setting": "MOP [3]", "value": 5.9, "unit": "µM"},
      {"measurement": "IC50", "setting": "MOP [4]", "value": "> 100", "unit": "µM"}
    ]},
    {"smiles": "CS(=O)(=O)c1ccc2c(c1)nc([C@@H]1CCNC1)n2C1CCN(CC2CCCCCCC2)CC1", "note": "[Cpd 44]", "values": [
      {"measurement": "IC50", "setting": "NOP [1]; [7]", "value": "> 10", "unit": "µM"},
      {"measurement": "EC50", "setting": "NOP [2]; [8]", "value": 3.3, "unit": "µM"},
      {"measurement": "IC50", "setting": "MOP [4]", "value": "> 10", "unit": "µM"}
    ]},
    {"smiles": "C1=CC2CC1CC2CN1CCC(n2c(C3CNC3)nc3ccccc32)CC1", "note": "(stereo not shown) [Cpd 47]", "values": [
      {"measurement": "IC50", "setting": "NOP [1]; [7]", "value": "> 10", "unit": "µM"},
      {"measurement": "EC50", "setting": "NOP [2]; [8]", "value": 0.31, "unit": "µM"},
      {"measurement": "EC50", "setting": "MOP [3]", "value": 0.3, "unit": "µM"},
      {"measurement": "IC50", "setting": "MOP [4]", "value": "> 10", "unit": "µM"}
    ]},
    {"smiles": "CC1=C(CN2CCC(n3c(C4CNC4)nc4cc(F)ccc43)CC2)C(C)(C)CCC1", "note": "[Cpd 53]", "values": [
      {"measurement": "IC50", "setting": "NOP [1]; [7]", "value": "> 10", "unit": "µM"},
      {"measurement": "EC50", "setting": "NOP [2]; [8]", "value": 0.21, "unit": "µM"},
      {"measurement": "IC50", "setting": "MOP [4]", "value": "> 10", "unit": "µM"}
    ]},
    {"smiles": "c1ccc2c(c1)nc(C1CNC1)n2C1CCN(CC2CCCCC2)CC1", "note": "[Cpd 55]", "values": [
      {"measurement": "IC50", "setting": "NOP [1]; [7]", "value": "> 10", "unit": "µM"},
      {"measurement": "EC50", "setting": "NOP [2]; [8]", "value": 0.14, "unit": "µM"},
      {"measurement": "IC50", "setting": "MOP [4]", "value": "> 10", "unit": "µM"}
    ]},
    {"smiles": "CC1(C)[C@H]2CC=C(CN3CCC(n4c([C@@H]5CCCNC5)nc5ccccc54)CC3)[C@@H]1C2", "note": "[Cpd 58]", "values": [
      {"measurement": "IC50", "setting": "NOP [1]; [7]", "value": "> 10", "unit": "µM"},
      {"measurement": "EC50", "setting": "NOP [2]; [8]", "value": 1.6, "unit": "µM"},
      {"measurement": "IC50", "setting": "MOP [4]", "value": "> 10", "unit": "µM"}
    ]},
    {"smiles": "c1ccc(CN2CCC(n3c([C@@H]4CCNC4)nc4ccccc43)CC2)cc1", "note": "[Cpd 59]", "values": [
      {"measurement": "IC50", "setting": "NOP [1]; [7]", "value": "> 10", "unit": "µM"},
      {"measurement": "EC50", "setting": "NOP [2]; [8]", "value": 0.37, "unit": "µM"},
      {"measurement": "EC50", "setting": "MOP [3]", "value": 0.27, "unit": "µM"},
      {"measurement": "IC50", "setting": "MOP [4]", "value": "> 10", "unit": "µM"}
    ]}
  ]
}
